In PMC6449304, “Novel parameter describing restriction endonucleases: Secondary-Cognate-Specificity and chemical stimulation of TsoI leading to substrate specificity change” (Applied Microbiology and Biotechnology, 2019):

Target: T1, TsoI (Thermus scotoductus, UniProt T1RQY5)
T1 construct: gene tsoIRM; native enzyme purified from Thermus scotoductus RFL4; bifunctional REase-MTase, TspDTI subfamily
T1 sequence (T1RQY5 1-1116): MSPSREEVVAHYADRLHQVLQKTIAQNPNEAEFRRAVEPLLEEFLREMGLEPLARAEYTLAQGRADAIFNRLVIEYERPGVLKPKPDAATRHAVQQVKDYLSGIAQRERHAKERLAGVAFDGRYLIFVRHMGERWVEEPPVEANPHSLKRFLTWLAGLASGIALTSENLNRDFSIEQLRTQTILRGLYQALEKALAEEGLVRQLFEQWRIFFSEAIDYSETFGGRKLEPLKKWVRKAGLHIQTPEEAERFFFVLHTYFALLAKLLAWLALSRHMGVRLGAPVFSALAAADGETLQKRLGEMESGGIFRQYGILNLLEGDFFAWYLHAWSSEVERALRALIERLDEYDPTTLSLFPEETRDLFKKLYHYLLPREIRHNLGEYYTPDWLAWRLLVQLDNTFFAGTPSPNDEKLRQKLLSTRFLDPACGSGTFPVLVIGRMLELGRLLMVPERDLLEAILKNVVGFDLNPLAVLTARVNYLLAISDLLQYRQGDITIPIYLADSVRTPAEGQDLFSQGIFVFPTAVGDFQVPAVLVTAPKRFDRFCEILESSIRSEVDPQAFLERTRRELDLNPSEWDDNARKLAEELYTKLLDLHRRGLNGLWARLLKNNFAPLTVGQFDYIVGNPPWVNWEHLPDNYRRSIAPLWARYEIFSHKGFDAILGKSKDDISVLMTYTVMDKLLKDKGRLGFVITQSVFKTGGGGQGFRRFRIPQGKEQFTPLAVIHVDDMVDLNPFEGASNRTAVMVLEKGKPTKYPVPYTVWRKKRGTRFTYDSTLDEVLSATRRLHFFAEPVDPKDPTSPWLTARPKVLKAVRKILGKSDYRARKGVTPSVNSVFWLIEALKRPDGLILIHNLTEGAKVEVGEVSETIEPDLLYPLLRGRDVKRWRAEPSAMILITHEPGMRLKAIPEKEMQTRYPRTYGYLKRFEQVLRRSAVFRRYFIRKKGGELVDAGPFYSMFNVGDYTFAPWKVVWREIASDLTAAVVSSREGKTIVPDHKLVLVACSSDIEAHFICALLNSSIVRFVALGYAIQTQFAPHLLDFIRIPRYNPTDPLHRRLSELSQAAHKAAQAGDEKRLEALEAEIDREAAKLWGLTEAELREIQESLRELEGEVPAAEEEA
Assay: DNA cleavage assay, agarose gel (stimulation of secondary-cognate-specificity cleavage)
Assay type: biochemical
Settings: pUC19 supercoiled DNA; 500 uM compound (31.25-500 uM tested); 10 mM Tris-HCl pH 7.5, 10 mM MgCl2, 50 mM NaCl, 55 °C, 1 h; activator, presumed SAM-binding motif

In the case of `Nc1ncnc2c1ncn2[C@@H]1O[C@H](CSC[C@H](N)C(=O)O)[C@@H](O)[C@H]1O` [SAC, S-adenosyl-L-cysteine], the “DNA cleavage assay, agarose gel (stimulation of secondary-cognate-specificity cl)” value is reported as “efficiency of TsoI SCS cleavage is significantly stimulated by high concentrations of SAC”.
